Several values for one entry are separate records, joined by “and”; a condition that tells them apart may be missing. Equal values may be shown once. Toxic doses and inconclusive results are not listed. Rule as the data show it: active = T/C of 150% or more; inactive = T/C below 125%.
System: L1210 leukemia ip in BDF1 mice, survival T/C
Assay: NCI In Vivo Anticancer Drug Screen. Data for tumor model L1210 Leukemia (intraperitoneal) in B6D2F1 (BDF1) mice
Conditions: endpoint: mean survival time, higher = longer survival
Summary of the method: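 Transplanted-tumor mice were given test agent; controls received vehicle only. Survival readings from the two groups were divided (treated over control).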

[1] = dose: 100.0 mg/kg/injection, schedule: Q01DX001 (ip), vehicle: carboxymethylcellulose (CMC)
[2] = dose: 100.0 mg/kg/injection, schedule: Q04DX003 (ip), vehicle: saline with Tween-80
[3] = dose: 200.0 mg/kg/injection, schedule: Q01DX001 (ip), vehicle: carboxymethylcellulose (CMC)
[4] = dose: 200.0 mg/kg/injection, schedule: Q04DX003 (ip), vehicle: saline with Tween-80
[5] = dose: 400.0 mg/kg/injection, schedule: Q04DX003 (ip), vehicle: saline with Tween-80
[6] = dose: 50.0 mg/kg/injection, schedule: Q01DX001 (ip), vehicle: Klucel (hydroxypropylcellulose) (HPC)
[7] = dose: 100.0 mg/kg/injection, schedule: Q01DX001 (ip), vehicle: Klucel (hydroxypropylcellulose) (HPC)
[8] = dose: 200.0 mg/kg/injection, schedule: Q01DX001 (ip), vehicle: Klucel (hydroxypropylcellulose) (HPC)
[9] = dose: 100.0 mg/kg/injection, schedule: Q01DX009 (ip), vehicle: saline
[10] = dose: 200.0 mg/kg/injection, schedule: Q01DX009 (ip), vehicle: saline
[11] = dose: 400.0 mg/kg/injection, schedule: Q01DX009 (ip), vehicle: saline
[12] = dose: 12.5 mg/kg/injection, schedule: Q01DX009 (ip), vehicle: saline with Tween-80
[13] = dose: 50.0 mg/kg/injection, schedule: Q01DX009 (ip), vehicle: saline with Tween-80
[14] = dose: 100.0 mg/kg/injection, schedule: Q01DX001 (ip), vehicle: saline
[15] = dose: 200.0 mg/kg/injection, schedule: Q01DX001 (ip), vehicle: saline
[16] = dose: 400.0 mg/kg/injection, schedule: Q01DX001 (ip), vehicle: saline
[17] = dose: 100.0 mg/kg/injection, schedule: Q01DX009 (ip), vehicle: saline with Tween-80
[18] = dose: 200.0 mg/kg/injection, schedule: Q01DX009 (ip), vehicle: saline with Tween-80

Measured: T/C

COc1ccc(/C(C#N)=C2C=C/C(=N\O)C(C)=C/2Cl)cc1
inactive: dose: 50.0 mg/kg/injection, schedule: Q01DX001 (ip), vehicle: carboxymethylcellulose (CMC) 109 % of control | [1] 96 % of control | [2] 92 % of control | [3] 93 % of control | [4] 106 % of control | dose: 400.0 mg/kg/injection, schedule: Q01DX001 (ip), vehicle: carboxymethylcellulose (CMC) 91 % of control | [5] 97 % of control

Cc1cc(NC(=O)CCc2ccc(N3C(N)=NC(N)=NC3(C)C)cc2)ccc1S(=O)(=O)F
inactive: dose: 4.0 mg/kg/injection, schedule: Q03HX024 (ip), vehicle: other 104 % of control | dose: 7.82 mg/kg/injection, schedule: Q12HX018 (ip), vehicle: acetone 106 % of control | dose: 8.0 mg/kg/injection, schedule: Q03HX008 (ip), vehicle: other 117 % of control | dose: 8.0 mg/kg/injection, schedule: Q03HX024 (ip), vehicle: other 114 % of control | dose: 15.62 mg/kg/injection, schedule: Q12HX018 (ip), vehicle: acetone 105 % of control | dose: 16.0 mg/kg/injection, schedule: Q01DX009 (ip), vehicle: other 112 % of control | dose: 16.0 mg/kg/injection, schedule: Q03HX008 (ip), vehicle: other 104 % of control | dose: 16.0 mg/kg/injection, schedule: Q03HX024 (ip), vehicle: other 114 % of control | dose: 18.0 mg/kg/injection, schedule: Q## X018 (ip), vehicle: saline 118 % of control | dose: 25.0 mg/kg/injection, schedule: Q01DX001 (ip), vehicle: Klucel (hydroxypropylcellulose) (HPC) 103 % of control | dose: 31.25 mg/kg/injection, schedule: Q12HX018 (ip), vehicle: acetone 113 % of control | dose: 32.0 mg/kg/injection, schedule: Q01DX009 (ip), vehicle: other 120 % of control | dose: 32.0 mg/kg/injection, schedule: Q03HX008 (ip), vehicle: other 109 % of control | dose: 32.0 mg/kg/injection, schedule: Q03HX024 (ip), vehicle: other 117 % of control | dose: 32.0 mg/kg/injection, schedule: Q04DX003 (ip), vehicle: other 109 % of control | [6] 105 % of control | dose: 64.0 mg/kg/injection, schedule: Q01DX001 (ip), vehicle: other 95 % of control | dose: 64.0 mg/kg/injection, schedule: Q01DX009 (ip), vehicle: other 117 % of control | dose: 64.0 mg/kg/injection, schedule: Q03HX008 (ip), vehicle: other 111 % of control | dose: 64.0 mg/kg/injection, schedule: Q04DX003 (ip), vehicle: other 104 % of control | [7] 101 % of control and 92 % of control | [8] 92 % of control | dose: 400.0 mg/kg/injection, schedule: Q01DX001 (ip), vehicle: Klucel (hydroxypropylcellulose) (HPC) 92 % of control

CC(NC(=O)Cc1ccccc1)C(=O)NN (stereo unspecified)
inactive: [9] 100 % of control | [10] 102 % of control | [11] 91 % of control

O=C(OCc1ccccc1CN1CCCC1)c1cccc(Br)c1
inactive: [7] 95 % of control | [8] 98 % of control

CC(=O)OC1CC2CC(C1C)C2(C)C (stereo unspecified)
inactive: [12] 105 % of control | dose: 25.0 mg/kg/injection, schedule: Q01DX009 (ip), vehicle: saline with Tween-80 91 % of control | [13] 100 % of control

Cn1c(=O)c2c(nc(CCCCCCCc3nc4c(c(=O)n(C)c(=O)n4C)n3C)n2C)n(C)c1=O
inactive: [14] 98 % of control | [15] 98 % of control | [16] 98 % of control

COC1CC2C(C[CH]1[Hg][Cl])C2(Cl)Cl (stereo unspecified)
inactive: dose: 3.13 mg/kg/injection, schedule: Q01DX009 (ip), vehicle: saline with Tween-80 103 % of control | dose: 6.25 mg/kg/injection, schedule: Q01DX009 (ip), vehicle: saline with Tween-80 94 % of control | dose: 6.25 mg/kg/injection, schedule: Q04DX003 (ip), vehicle: saline with Tween-80 105 % of control | [12] 96 % of control | dose: 12.5 mg/kg/injection, schedule: Q04DX003 (ip), vehicle: saline with Tween-80 96 % of control

COCC(O)CC#N (stereo unspecified)
inactive: [9] 117 % of control | [10] 113 % of control | [11] 111 % of control

CNc1nc(=O)n(C2CCCO2)cc1C (stereo unspecified)
inactive: [14] 90 % of control | [15] 98 % of control | [16] 95 % of control

Cc1noc(C)c1CON
inactive: dose: 75.0 mg/kg/injection, schedule: Q01DX001 (ip), vehicle: saline 100 % of control and 102 % of control | dose: 150.0 mg/kg/injection, schedule: Q01DX001 (ip), vehicle: saline 105 % of control | dose: 300.0 mg/kg/injection, schedule: Q01DX001 (ip), vehicle: saline 94 % of control and 91 % of control

O=C(Nc1ccccc1Cl)Oc1ccc(-c2ccccc2)cc1
inactive: dose: 100.0 mg/kg/injection, schedule: Q04DX002 (ip), vehicle: Klucel (hydroxypropylcellulose) (HPC) 95 % of control | dose: 200.0 mg/kg/injection, schedule: Q04DX002 (ip), vehicle: Klucel (hydroxypropylcellulose) (HPC) 95 % of control | dose: 400.0 mg/kg/injection, schedule: Q04DX002 (ip), vehicle: Klucel (hydroxypropylcellulose) (HPC) 106 % of control

O=C(Nc1ccc([N+](=O)[O-])cc1)C(Cl)(Cl)Cl
inactive: [6] 94 % of control | [7] 95 % of control | [8] 97 % of control

CN=C(NO)c1ccccc1C
inactive: [1] 100 % of control | [3] 97 % of control

O=S(=O)(Nc1cccc(C(F)(F)F)c1)c1cc(Cl)c(Cl)cc1Cl
inactive: dose: 50.0 mg/kg/injection, schedule: Q01DX009 (ip), vehicle: carboxymethylcellulose (CMC) 86 % of control | dose: 75.0 mg/kg/injection, schedule: Q04DX003 (ip), vehicle: carboxymethylcellulose (CMC) 94 % of control | dose: 100.0 mg/kg/injection, schedule: Q04DX002 (ip), vehicle: carboxymethylcellulose (CMC) 100 % of control and 102 % of control | dose: 150.0 mg/kg/injection, schedule: Q04DX003 (ip), vehicle: carboxymethylcellulose (CMC) 94 % of control | dose: 200.0 mg/kg/injection, schedule: Q04DX002 (ip), vehicle: carboxymethylcellulose (CMC) 97 % of control | dose: 300.0 mg/kg/injection, schedule: Q04DX003 (ip), vehicle: carboxymethylcellulose (CMC) 100 % of control | dose: 400.0 mg/kg/injection, schedule: Q04DX002 (ip), vehicle: carboxymethylcellulose (CMC) 101 % of control and 91 % of control

O=c1c2ccccc2nnn1-c1ccccc1Cl
inactive: [9] 105 % of control | [10] 103 % of control | [11] 89 % of control

O=C(Oc1c(Cl)cc(Cl)cc1Cl)c1ccccc1
inactive: dose: 100.0 mg/kg/injection, schedule: Q01DX009 (ip), vehicle: Klucel (hydroxypropylcellulose) (HPC) 93 % of control | [17] 90 % of control | dose: 100.0 mg/kg/injection, schedule: Q04DX003 (ip), vehicle: Klucel (hydroxypropylcellulose) (HPC) 93 % of control | [2] 98 % of control | dose: 200.0 mg/kg/injection, schedule: Q01DX009 (ip), vehicle: Klucel (hydroxypropylcellulose) (HPC) 96 % of control | [18] 91 % of control | dose: 200.0 mg/kg/injection, schedule: Q04DX003 (ip), vehicle: Klucel (hydroxypropylcellulose) (HPC) 96 % of control | [4] 98 % of control | dose: 400.0 mg/kg/injection, schedule: Q01DX009 (ip), vehicle: Klucel (hydroxypropylcellulose) (HPC) 98 % of control | dose: 400.0 mg/kg/injection, schedule: Q01DX009 (ip), vehicle: saline with Tween-80 106 % of control | dose: 400.0 mg/kg/injection, schedule: Q04DX003 (ip), vehicle: Klucel (hydroxypropylcellulose) (HPC) 98 % of control | [5] 96 % of control

C1=C2CC3(CCC2C(OCc2ccccc2)CC1)OCCO3 (stereo unspecified)
inactive: [13] 100 % of control | [17] 92 % of control | [18] 94 % of control

CC1(C)CSCC(C)(C)C(=O)C1=O
inactive: dose: 50.0 mg/kg/injection, schedule: Q04DX002 (ip), vehicle: saline with Tween-80 100 % of control | dose: 100.0 mg/kg/injection, schedule: Q04DX002 (ip), vehicle: saline with Tween-80 109 % of control | dose: 200.0 mg/kg/injection, schedule: Q04DX002 (ip), vehicle: saline with Tween-80 103 % of control

Source: PubChem BioAssay AID248 (DTP/NCI, 2004)
